In the Kinase Knowledgebase extract (Sharma et al. 2016) one finds IC50 data, which are given here for 7 compounds.

Usually IC50 stands for the concentration needed to halve the response being measured.

Structures are written as SMILES. Some results are limits rather than exact numbers.

For assay [1], the target named is MAPK14 (UniProt Q16539). As to the kind of experiment: TNF Inhibition (In Vivo Assay).
In assay [2] the target is MAPK14 (UniProt Q16539). As to the kind of experiment: MAPK14 (CSBP) Binding Inhibition.

MAPK14, sequence (Q16539 whole entry, looked up): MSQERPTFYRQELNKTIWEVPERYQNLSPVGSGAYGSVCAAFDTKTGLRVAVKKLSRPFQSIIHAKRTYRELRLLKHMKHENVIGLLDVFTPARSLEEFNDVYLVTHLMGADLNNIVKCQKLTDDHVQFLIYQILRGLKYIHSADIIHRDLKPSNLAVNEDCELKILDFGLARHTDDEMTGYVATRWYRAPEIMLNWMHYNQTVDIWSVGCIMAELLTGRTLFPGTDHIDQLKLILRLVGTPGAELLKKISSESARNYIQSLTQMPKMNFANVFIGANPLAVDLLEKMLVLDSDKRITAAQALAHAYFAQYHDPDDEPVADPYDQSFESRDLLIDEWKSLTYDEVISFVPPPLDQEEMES

As to `CC(C)Oc1nccc(-c2c(-c3ccc(F)cc3)ncn2C2CCC(=O)CC2)n1`, the IC50 with MAPK14 [1] and at MAPK14 [2] was below 50 µM in each case.

As to `CSc1nccc(-c2c(-c3ccc(F)cc3)ncn2[C@H]2CC[C@H](O)CC2)n1`, the half-inhibitory concentration (IC50) on MAPK14 [2] is below 50 µM. Take `CC(C)Oc1nccc(-c2c(-c3ccc(F)cc3)ncn2C2CCC(O)CC2)n1` (stereo unspecified): the IC50 with MAPK14 [1] and at MAPK14 [2] was below 50 µM in each case. With `COc1nccc(-c2c(-c3ccc(F)cc3)ncn2[C@H]2CC[C@@](C)(O)CC2)n1.COc1nccc(-c2c(-c3ccc(F)cc3)ncn2[C@H]2CC[C@](C)(O)CC2)n1`, the IC50 in the assay with MAPK14 [1] and on MAPK14 [2] was below 50 µM each time. `CSc1nccc(-c2c(-c3ccc(F)cc3)ncn2C2CCC(=O)CC2)n1` had an IC50 at MAPK14 [2] below 50 µM.

The compound `O=C1CCC(n2cnc(-c3ccc(F)cc3)c2-c2ccnc(O)n2)CC1` showed an IC50 at MAPK14 [2] below 50 µM. Regarding `COc1nccc(-c2c(-c3ccc(F)cc3)ncn2C2CCC(=O)CC2)n1`, the IC50 with MAPK14 [1] and at MAPK14 [2] was below 50 µM in each case.
